Results: patent US20190374627A1, “TARGET PEPTIDES FOR CANCER THERAPY AND DIAGNOSTICS” (priority 2016, published 2019)
Square brackets hold non-standard residues; d marks the D form. Ends that are not written are not given here. pT = C[C@@H](OP(=O)(O)O)[C@H](N)C(=O)O; pS = N[C@@H](COP(=O)(O)O)C(=O)O

How the values were obtained:
[1] = tested on: unexpanded lymphocyte cultures (CD8^+ T cells); assay: ICS for MHC-I-pP reactivity of lymphocyte cultures without expansion (Table 23, No Expansion); details: HH6
[2] = tested on: expanded TIL / IHL cultures; assay: ICS for MHC-I-pP reactivity of liver-derived lymphocyte cultures after unspecific rapid expansion protocol (REP); format: cell-based, human
[3] = tested on: expanded lymphocyte cultures from deceased donor livers, cirrhotic livers and HCC; assay: ICS for MHC-I-pP reactivity of liver-derived lymphocyte cultures after phosphopeptide-specific expansion; format: cell-based, human; details: for ppCTL response, Deceased Donor Liver Do 2 / ppCTL response, Deceased Donor Liver Do 3 / ppCTL response, Deceased Donor Liver Do 4 / ppCTL response, Deceased Donor Liver Do 6 / ppCTL response, End-stage Liver Cirrhosis IHL 11 / ppCTL response, End-stage Liver Cirrhosis IHL 12 / ppCTL response, End-stage Liver Cirrhosis IHL 13 / ppCTL response, End-stage Liver Cirrhosis IHL 15 / ppCTL response, HCC Distal HCC 1 / ppCTL response, HCC Tumor HCC 1 / ppCTL response, HCC Distal HCC 4 / ppCTL response, HCC Distal HCC 9 / ppCTL response, HCC Tumor HCC 9 / ppCTL response, HCC Distal HCC 12: pP-specifically expanded culture; for ppCTL response, HCC Distal HCC 1: HCC 1 Distal; for ppCTL response, HCC Tumor HCC 1: HCC 1 Tumor; for ppCTL response, HCC Distal HCC 4: HCC 4 Distal; for ppCTL response, HCC Distal HCC 9: HCC 9 Distal; for ppCTL response, HCC Tumor HCC 9: HCC 9 Tumor; for ppCTL response, HCC Distal HCC 12: HCC 12 Distal
[4] = tested on: CD8^+ T cells (PBMCs); assay: Intracellular cytokine staining (ICS) of PBMCs after 7 days of stimulation with MHC-I-pP (healthy donors, HH patients); format: cell-based, human; details: for Reactive CD8^+ T cell population, HH2: HH patient HH2; for Reactive CD8^+ T cell population, HH3: HH patient HH3; for Reactive CD8^+ T cell population, HH6: HH patient HH6; for Reactive CD8^+ T cell population, HH8: HH patient HH8; for Reactive CD8^+ T cell population, HD1: Healthy donor HD1; for Reactive CD8^+ T cell population, HD4: Healthy donor HD4; for Reactive CD8^+ T cell population, HD5: Healthy donor HD5; for Reactive CD8^+ T cell population, HH11: HH patient HH11
Experimental: From this, CD8^+ T cell responses against newly identified MHC class I-associated phosphopeptides in healthy individuals and patients with chronic liver disease were investigated. Twenty-one of the newly identified HCC-associated HLA-A*0201-restricted phosphopeptides were selected (see Table 17) for further immunological testing in HLA-A*0201 positive patients. MHC-I-pP-specific cytotoxic CD8^+ T cell responses (ppCTL) were assessed using intracellular cytokine staining (ICS) and several cytokines and surface markers were assessed in parallel. After 7 days of stimulation with the respective MHC-I-pP and no other cytokines, CD3- and CD8-expressing T cells were stained for at least two different cytokines (IFN-γ, TNF-α) and when required CD107a expression as a marker for their cytotoxic potential.
First, peripheral blood mononuclear cells (PBMCs) from healthy donors and patients with hereditary hemochromatosis (HH) were analyzed. HH is a chronic liver disease characterized by excessive intestinal absorption of dietary iron resulting in a pathological deposition of iron in the liver. PBMCs or lymphocytes from liver tissue were extracted and specifically stimulated with (phospho-) peptides for 7 days before intracellular cytokine staining (ICS). Doublets and dead cells, using a fixable viability dye, were excluded. Lymphocytes were gated on CD3^+ and CD8^+ double positive cells and were analysed for expression of IFNγ, TNFα-, and CD107a.

Substance	Reactive CD8^+ T cells, No Expansion, HH6 [1]	Reactive CD8^+ T cells, Non-specific Expansion, Do2 [2]	Reactive CD8^+ T cells, Non-specific Expansion, Do4 [2]	Reactive CD8^+ T cells, Non-specific Expansion, HH6 [2]	Reactive CD8^+ T cells, pP-specific Expansion, Do2 [3]	Reactive CD8^+ T cells, pP-specific Expansion, Do4 [3]	Reactive CD8^+ T cells, pP-specific Expansion, HH6 [3]	ppCTL response, Deceased Donor Liver Do 2 [3]	ppCTL response, Deceased Donor Liver Do 3 [3]	ppCTL response, Deceased Donor Liver Do 4 [3]	ppCTL response, Deceased Donor Liver Do 6 [3]	ppCTL response, End-stage Liver Cirrhosis IHL 11 [3]	ppCTL response, End-stage Liver Cirrhosis IHL 12 [3]	ppCTL response, End-stage Liver Cirrhosis IHL 13 [3]	ppCTL response, End-stage Liver Cirrhosis IHL 15 [3]	ppCTL response, HCC Distal HCC 1 [3]	ppCTL response, HCC Tumor HCC 1 [3]	ppCTL response, HCC Distal HCC 4 [3]	ppCTL response, HCC Distal HCC 9 [3]	ppCTL response, HCC Tumor HCC 9 [3]	further results
AVVsPPALHNA: BRD4 phosphopeptide, HLA-A*0201 (AVV[pS]PPALHNA; listed as Homo sapiens)	2 (2.5-5.0% reactive CD8^-+ T cells)	0 (<0.25% reactive CD8^-+ T cells)	0 (<0.25% reactive CD8^-+ T cells)	0 (<0.25% reactive CD8^-+ T cells)	0 (<0.25% reactive CD8^-+ T cells)	0 (<0.25% reactive CD8^-+ T cells)	2 (2.5-5.0% reactive CD8^-+ T cells)	0 (<0.25% reactive CD8-+ T cells)	0 (<0.25% reactive CD8-+ T cells)	0 (<0.25% reactive CD8-+ T cells)	0 (<0.25% reactive CD8-+ T cells)	0 (<0.25% reactive CD8-+ T cells)	0 (<0.25% reactive CD8-+ T cells)	0 (<0.25% reactive CD8-+ T cells)	0 (<0.25% reactive CD8-+ T cells)	0 (<0.25% reactive CD8-+ T cells)	0 (<0.25% reactive CD8-+ T cells)	0 (<0.25% reactive CD8-+ T cells)	0 (<0.25% reactive CD8-+ T cells)	1 (0.25-2.5% reactive CD8-+ T cells)	ppCTL response, HCC Distal HCC 12 [3]: 0 (<0.25% reactive CD8-+ T cells); Reactive CD8^+ T cell population, HH2 [4]: 0 (<0.25% reactive CD8^-+ T cells); Reactive CD8^+ T cell population, HH3 [4]: 0 (<0.25% reactive CD8^-+ T cells); Reactive CD8^+ T cell population, HH6 [4]: 2 (2.5-5.0% reactive CD8^-+ T cells); Reactive CD8^+ T cell population, HH8 [4]: 0 (<0.25% reactive CD8^-+ T cells); Reactive CD8^+ T cell population, HD1 [4]: 0 (<0.25% reactive CD8^-+ T cells); Reactive CD8^+ T cell population, HD4 [4]: 0 (<0.25% reactive CD8^-+ T cells); Reactive CD8^+ T cell population, HD5 [4]: 0 (<0.25% reactive CD8^-+ T cells)
FLDtPIAKV: NKD1 phosphopeptide, HLA-A*0201 (FLD[pT]PIAKV; listed as Homo sapiens)	0 (<0.25% reactive CD8^-+ T cells)	1 (0.25-2.5% reactive CD8^-+ T cells)	0 (<0.25% reactive CD8^-+ T cells)	0 (<0.25% reactive CD8^-+ T cells)	0 (<0.25% reactive CD8^-+ T cells)	0 (<0.25% reactive CD8^-+ T cells)	2 (2.5-5.0% reactive CD8^-+ T cells)	0 (<0.25% reactive CD8-+ T cells)	0 (<0.25% reactive CD8-+ T cells)	0 (<0.25% reactive CD8-+ T cells)	0 (<0.25% reactive CD8-+ T cells)	0 (<0.25% reactive CD8-+ T cells)	0 (<0.25% reactive CD8-+ T cells)	0 (<0.25% reactive CD8-+ T cells)	0 (<0.25% reactive CD8-+ T cells)	0 (<0.25% reactive CD8-+ T cells)	0 (<0.25% reactive CD8-+ T cells)	0 (<0.25% reactive CD8-+ T cells)	0 (<0.25% reactive CD8-+ T cells)	0 (<0.25% reactive CD8-+ T cells)	ppCTL response, HCC Distal HCC 12 [3]: 0 (<0.25% reactive CD8-+ T cells); Reactive CD8^+ T cell population, HH2 [4]: 0 (<0.25% reactive CD8^-+ T cells); Reactive CD8^+ T cell population, HH3 [4]: 0 (<0.25% reactive CD8^-+ T cells); Reactive CD8^+ T cell population, HH6 [4]: 0 (<0.25% reactive CD8^-+ T cells); Reactive CD8^+ T cell population, HH8 [4]: 0 (<0.25% reactive CD8^-+ T cells); Reactive CD8^+ T cell population, HH11 [4]: 0 (<0.25% reactive CD8^-+ T cells); Reactive CD8^+ T cell population, HD1 [4]: 0 (<0.25% reactive CD8^-+ T cells); Reactive CD8^+ T cell population, HD4 [4]: 0 (<0.25% reactive CD8^-+ T cells); Reactive CD8^+ T cell population, HD5 [4]: 0 (<0.25% reactive CD8^-+ T cells)
KAFsPVRSV: ID2 phosphopeptide, HLA-A*0201 (KAF[pS]PVRSV; listed as Homo sapiens)	0 (<0.25% reactive CD8^-+ T cells)	0 (<0.25% reactive CD8^-+ T cells)	0 (<0.25% reactive CD8^-+ T cells)	0 (<0.25% reactive CD8^-+ T cells)	0 (<0.25% reactive CD8^-+ T cells)	0 (<0.25% reactive CD8^-+ T cells)	0 (<0.25% reactive CD8^-+ T cells)	1 (0.25-2.5% reactive CD8-+ T cells)	0 (<0.25% reactive CD8-+ T cells)	0 (<0.25% reactive CD8-+ T cells)	0 (<0.25% reactive CD8-+ T cells)	0 (<0.25% reactive CD8-+ T cells)	0 (<0.25% reactive CD8-+ T cells)	0 (<0.25% reactive CD8-+ T cells)	0 (<0.25% reactive CD8-+ T cells)	0 (<0.25% reactive CD8-+ T cells)	0 (<0.25% reactive CD8-+ T cells)	0 (<0.25% reactive CD8-+ T cells)	0 (<0.25% reactive CD8-+ T cells)	0 (<0.25% reactive CD8-+ T cells)	ppCTL response, HCC Distal HCC 12 [3]: 0 (<0.25% reactive CD8-+ T cells); Reactive CD8^+ T cell population, HH2 [4]: 0 (<0.25% reactive CD8^-+ T cells); Reactive CD8^+ T cell population, HH3 [4]: 0 (<0.25% reactive CD8^-+ T cells); Reactive CD8^+ T cell population, HH6 [4]: 0 (<0.25% reactive CD8^-+ T cells); Reactive CD8^+ T cell population, HH8 [4]: 0 (<0.25% reactive CD8^-+ T cells); Reactive CD8^+ T cell population, HH11 [4]: 0 (<0.25% reactive CD8^-+ T cells); Reactive CD8^+ T cell population, HD1 [4]: 0 (<0.25% reactive CD8^-+ T cells); Reactive CD8^+ T cell population, HD4 [4]: 0 (<0.25% reactive CD8^-+ T cells); Reactive CD8^+ T cell population, HD5 [4]: 0 (<0.25% reactive CD8^-+ T cells)
